Literature values as cited in US5866539A, “Method for the control of antibiotic-resistant gram positive bacteria and treatment of infection” (AMBI Inc., priority 1996, dated 1999).
Where no end group is shown, it is not given here.

System: staphylococci and enterococci
Settings: compared to currently used therapeutic agents

| Substance | activity towards staphylococci and enterococci |
| --- | --- |
| Actagardine | only moderate activity |
| mersacidin (CTFTLPGGGGVCTLTSECIC; also: lantibiotic thioether rings, places not given here; UniProt P43683 49-68, looked up) [more recent lanthionine-containing antimicrobial peptide evaluated in the literature] | only moderate activity |
